Experimental findings from patent US8541572B2 are described below.

In this test the test system is TNF-α production in LPS-stimulated human whole blood. In words: Inhibition of TNF-α production from human whole blood (hWBA). It counts as cell-based. Particulars: LPS-stimulated human whole blood, read-out: hWBA.
[1] abbreviates: IC50 for inhibition of TNF-α production.
The mark [2] stands for this setting: Homo sapiens, IC50 for TNF-α production.
[3] abbreviates: Homo sapiens, IC50 for inhibition of TNF-α production.

SMILES strings stand for the structures. Like-named read-outs stand apart in the source and are kept apart here.

With `COc1ccc2c(c1)C(=O)N(C[C@@]1(C#Cc3ccc(-n4cncn4)cc3)NC(=O)NC1=O)C2` [Compound 2228], the IC50 under setting [1] was determined as 1140 nM.
On to `COc1ccc2c(c1)C(=O)N(C[C@@]1(C#Cc3ccc(N4CCNC4=O)cc3)NC(=O)NC1=O)C2` [Compound 1150], for which, under setting [1], the IC50 was 1620 nM.
On to `COc1ccc2c(c1)C(=O)N(C[C@@]1(C#Cc3ccc(C(=O)NS(C)(=O)=O)nc3)NC(=O)NC1=O)C2` [Compound 902], for which the IC50 under setting [2] was 1370 nM.
In the case of `COc1ccc2c(c1)C(=O)N(C[C@@]1(C#Cc3ccc([C@@]4(CN5Cc6ccc(OC)cc6C5=O)NC(=O)NC4=O)cc3)NC(=O)NC1=O)C2` [Compound 2217], under setting [1], the IC50 was 849 nM.
Take `COc1ccc2c(c1)C(=O)N(C[C@@]1(C#Cc3cccnc3-c3cn[nH]c3)NC(=O)NC1=O)C2` [Compound 2266]: the IC50 under setting [2] amounted to 927 nM.
As to `COc1ccc2c(c1F)C(=O)N(C[C@@]1(C#Cc3ccc(-c4nc(-c5cnn(C)c5)ccc4O)c(F)c3)NC(=O)NC1=O)C2` [Compound 987], under setting [1], the IC50 amounted to 75.4 nM.
The same measure, in the same setting: the value for `COc1ccc2c(c1)C(=O)N(C[C@@]1(C#Cc3cc(F)c4c(O)n[nH]c4c3)NC(=O)NC1=O)C2` [Compound 302] was 723 nM; that for `COc1ccc2c(c1)C(=O)N(C[C@@]1(C#Cc3ccc(C4(CN5Cc6cc(O)ccc6C5=O)NC(=O)NC4=O)cc3)NC(=O)NC1=O)C2` (some centres unmarked) [Compound 2216] was 419 nM.
Take `COCCN1CCN(c2ccc(OC)c(C#C[C@]3(CN4Cc5ccc(OC)cc5C4=O)NC(=O)NC3=O)n2)CC1` [Compound 1507]: under setting [1], the IC50 turned out to be 5710 nM.
Turning to `COc1ccc2c(c1)C(=O)N(C[C@@]1(C#Cc3ccc(CC4(C)NC(=O)NC4=O)cc3)NC(=O)NC1=O)C2` (some centres unmarked) [Compound 2281], the IC50 under setting [2] is 1000 nM.
For the compound `COc1ccc2c(c1)CCN(C[C@@]1(C#Cc3ccc(C(=NO)N4CCN(C)CC4)cc3)NC(=O)NC1=O)C2=O` [Compound 2320], where the note is “IC50 for TNF-α production”, the IC50 is 261 nM.
For the compound `CCN1CCN(c2ccc(O)c(-c3ccc(C#C[C@]4(CN5Cc6ccc(OC)cc6C5=O)NC(=O)NC4=O)cc3F)n2)CC1` [Compound 976], the IC50 under setting [1] came out at 39.8 nM.
The same measure, in the same setting: then `CCN1CCN(Cc2ccc(C#C[C@]3(CN4Cc5ccc(OC)c(F)c5C4=O)NC(=O)NC3=O)cn2)CC1` [Compound 978], with 156 nM; and `COc1ccc2c(c1)C(=O)N(C[C@@]1(C#Cc3ccc(Nc4c(NCCN5CCOCC5)c(=O)c4=O)cc3)NC(=O)NC1=O)C2` [Compound 1306], with 169 nM.
As to `COc1ccc2c(c1)C(=O)N(C[C@@]1(C#Cc3nc(-c4cnc(N(C)C)nc4)ccc3OC)NC(=O)NC1=O)C2` [Compound 1510], the IC50 under setting [1] came to 10000 nM.
For `COc1ccc2c(c1)C(=O)N(C[C@@]1(C#Cc3cccc(C(=NO)N4CCOCC4)c3)NC(=O)NC1=O)C2` [Compound 916], under setting [2], the IC50 stood at 274 nM.
As to `COc1ccc2c(c1)C(=O)N(C[C@@]1(C#Cc3ccc(C(=NO)N4CCC4)cc3)NC(=O)NC1=O)C2` [Compound 914], the IC50 (IC50 for TNF-α production) was determined as 186 nM.
The same measure, in the same setting: then `COc1ccc2c(c1)C(=O)N(C[C@@]1(C#Cc3ccc(/C=N\Nc4ccccc4)cc3)NC(=O)NC1=O)C2` [Compound 935], with 1220 nM; and `CCN1CCN(C(=NO)c2ccc(C#C[C@]3(CN4Cc5ccc(OC)cc5C4=O)NC(=O)NC3=O)cn2)CC1` [Compound 954], with 87 nM.
Consider `CCN1CCN(c2cccc(-c3ccc(C#C[C@]4(CN5Cc6ccc(OC)c(F)c6C5=O)NC(=O)NC4=O)cc3F)n2)CC1` [Compound 992], for which the IC50 under setting [1] was found to be 808 nM.
For the compound `COc1ccc2c(c1)C(=O)N(C[C@@]1(C#Cc3ccc(C4(C(N)=O)CC4)cc3)NC(=O)NC1=O)C2` [Compound 2260], the IC50 (IC50 for TNF-α production) came out at 227 nM.
For the compound `COC(=O)Cc1ccc(C#C[C@]2(CN3Cc4ccc(OC)cc4C3=O)NC(=O)NC2=O)cc1` [Compound 2284], under setting [2], the IC50 is 379 nM.
For `COc1ccc2c(c1)C(=O)N(C[C@@]1(C#Cc3ccc(C(=NO)N4CCN(C)CC4)s3)NC(=O)NC1=O)C2` [Compound 951], where the note is “IC50 for TNF-α production”, the IC50 is 220 nM.
With `COc1ccc2c(c1)C(=O)N(C[C@@]1(C#Cc3ccc(C(=O)N4CCC(N5CCCCC5)CC4)cc3)NC(=O)NC1=O)C2` [Compound 963], under setting [3], the IC50 is 401 nM.
Regarding `CCN1CCN(C(=O)C2CCC(=O)N2c2ccc(C#C[C@]3(CN4Cc5ccc(OC)cc5C4=O)NC(=O)NC3=O)cc2)CC1` (some centres unmarked) [Compound 1901], under setting [1], the IC50 stood at 113 nM.
For the compound `COc1ccc2c(c1F)C(=O)N(C[C@@]1(C#Cc3ccc(CN4CCc5ccc(F)cc5C4)nc3)NC(=O)NC1=O)C2` [Compound 968], the IC50 under setting [1] was 4980 nM.
As to `COc1ccc2c(c1)C(=O)N(C[C@@]1(C#Cc3ccc(-c4ccc(C)nc4O)nc3)NC(=O)NC1=O)C2` [Compound 1301], under setting [1], the IC50 came out at 766 nM.
Consider `COc1ccc2c(c1)C(=O)N(C[C@@]1(C#Cc3cnc4ccccc4c3CO)NC(=O)NC1=O)C2` [Compound 2219], for which the IC50 under setting [3] amounted to 8900 nM.
Consider `COc1ccc2c(c1)C(=O)N(C[C@@]1(C#Cc3ccc(-c4nc(-c5cccnc5)ccc4O)cc3)NC(=O)NC1=O)C2` [Compound 971], for which, under setting [1], the IC50 is 80.2 nM.
Turning to `COc1ccc2c(c1)C(=O)N(C[C@@]1(C#Cc3cnc(N4CCC(=O)CC4)nc3N)NC(=O)NC1=O)C2` [Compound 2210], the IC50 under setting [1] came out at 1010 nM.
As to `COc1ccc2c(c1F)C(=O)N(C[C@@]1(C#Cc3cc(F)cnc3Cl)NC(=O)NC1=O)C2` [Compound 1312], the IC50 under setting [1] was 935 nM.
With `COc1ccc2c(c1)C(=O)N(C[C@@]1(C#Cc3ccc(Nc4c(NCCN(C)C)c(=O)c4=O)cc3)NC(=O)NC1=O)C2` [Compound 1307], the IC50 under setting [1] worked out at 161 nM.
As for `COc1ccc2c(c1)C(=O)N(C[C@@]1(C#Cc3ccc(-c4nc(-c5cnn(C)c5)ccc4OC(=O)C(C)(C)C)cc3)NC(=O)NC1=O)C2` [Compound 990], the IC50 under setting [1] came to 42.8 nM.
Regarding `COc1ccc2c(c1)C(=O)N(C[C@]1(C#Cc3ccc(C(=O)NS(C)(=O)=O)nc3)NC(=O)NC1=O)C2` [Compound 901], the IC50 under setting [2] turned out to be 1000 nM.
For `CCNc1nnc(-c2ccc(C#C[C@]3(CN4Cc5ccc(OC)cc5C4=O)NC(=O)NC3=O)cc2)o1` [Compound 1920], the IC50 under setting [1] amounted to 269 nM.
Regarding `COc1ccc2c(c1)C(=O)N(CC1(C#Cc3cccnc3N3CCN(C)CC3)NC(=O)NC1=O)C2` (centres unmarked) [Compound 2285], under setting [2], the IC50 amounted to 1230 nM.
`COc1ccc2c(c1)C(=O)N(C[C@@]1(C#Cc3nc(N)ccc3O)NC(=O)NC1=O)C2` [Compound 1921]: the IC50 under setting [1] came out at 808 nM.
As to `COc1ccc2c(c1)C(=O)N(C[C@@]1(C#Cc3ccc4oc(C5(C)NC(=O)NC5=O)cc4c3)NC(=O)NC1=O)C2` (some centres unmarked) [Compound 909], the IC50 under setting [2] turned out to be 292 nM.
`CCN1CCN(C(=NO)c2cnc(C#C[C@]3(CN4Cc5ccc(OC)cc5C4=O)NC(=O)NC3=O)c(OC)c2)CC1` [Compound 1923]: under setting [3], the IC50 was determined as 204 nM.
On to `COc1ccc2c(c1F)C(=O)N(C[C@@]1(C#Cc3ccc(N4C(=O)NC5(CC5)C4=O)c(F)c3)NC(=O)NC1=O)C2` [Compound 1317], for which the IC50 under setting [1] was found to be 148 nM.
Consider `COc1ccc2c(c1)C(=O)N(C[C@@]1(C#Cc3cccnc3)NC(=O)NC1=O)CC2` [Compound 2318], for which the IC50 (IC50 for TNF-α production) worked out at 10000 nM.
Consider `COc1ccc2c(c1)C(=O)N(C[C@@]1(C#Cc3nc(-c4n[nH]c(=O)n4C4CCN(C)CC4)ccc3OC)NC(=O)NC1=O)C2` [Compound 1900], for which the IC50 under setting [1] amounted to 2190 nM.
`COc1ccc2c(c1)C(=O)N(C[C@@]1(C#Cc3c(C)ncc(C(=O)O)c3O)NC(=O)NC1=O)C2` [Compound 2232]: the IC50 under setting [1] was 699 nM.
Turning to `COc1ccc2c(c1)CCN(C[C@@]1(C#Cc3ccc(C(=NO)N4CCOCC4)cc3)NC(=O)NC1=O)C2=O` [Compound 2319], the IC50 (IC50 for TNF-α production) turned out to be 1060 nM.
Consider `COc1ccc2c(c1F)C(=O)N(C[C@@]1(C#Cc3ccc(-c4cccc(N5CCN(C6CCCCC6)CC5)n4)cc3)NC(=O)NC1=O)C2` [Compound 993], for which the IC50 under setting [1] came to 856 nM.
For `CCN1CCN(C(=NO)c2ccc(C#C[C@]3(CN4Cc5ccc(OC)cc5C4=O)NC(=O)NC3=O)cc2)CC1` [Compound 911], the IC50 under setting [2] stood at 20 nM.
On to `COc1ccc2c(c1)C(=O)N(C[C@@]1(C#Cc3ccc(C(=NO)N4CCCC4)cc3)NC(=O)NC1=O)C2` [Compound 942], for which, under “IC50 for TNF-α production”, the IC50 is 641 nM.
For `COc1ccc2c(c1)C(=O)N(C[C@@]1(C#Cc3ccc(C(CN)N4CCC(NC(=O)OC(C)(C)C)C4)cc3)NC(=O)NC1=O)C2` (some centres unmarked) [Compound 1703], the IC50 under setting [1] turned out to be 316 nM.
On to `COc1ccc2c(c1)C(=O)N(C[C@@]1(C#Cc3cccnc3-c3cncnc3)NC(=O)NC1=O)C2` [Compound 2290], for which the IC50 (IC50 for TNF-α production) amounted to 1590 nM.
As to `COc1ccc2c(c1)C(=O)N(C[C@@]1(C#Cc3ccc(Nc4c(N)c(=O)c4=O)cc3)NC(=O)NC1=O)C2` [Compound 1308], under setting [1], the IC50 came to 306 nM.
Regarding `COc1ccc2c(c1)C(=O)N(C[C@@]1(C#Cc3ncc(C(=NO)N4CCN(c5cnccn5)CC4)cc3OC)NC(=O)NC1=O)C2` [Compound 1924], the IC50 under setting [1] was 515 nM.
For the compound `COc1ccc2c(c1)C(=O)N(C[C@@]1(C#Cc3cnc(N)nc3N)NC(=O)NC1=O)C2` [Compound 2209], the IC50 under setting [3] was found to be 1600 nM.
For the compound `COc1ccc2c(c1)CCN(C[C@@]1(C#Cc3ccc4c(c3)CCCC43NC(=O)NC3=O)NC(=O)NC1=O)C2=O` (some centres unmarked) [Compound 2321], for the setting “IC50 for TNF-α production”, the IC50 came out at 1100 nM.
As for `COc1ccc2c(c1F)C(=O)N(C[C@@]1(C#Cc3ccc(CN4CCN(c5ccncc5)CC4)cc3)NC(=O)NC1=O)C2` [Compound 981], the IC50 under setting [3] came out at 290 nM.
Consider `COc1ccc2c(c1F)C(=O)N(C[C@@]1(C#Cc3ccc(-c4nc(-c5cnn(C)c5)ccc4O)cc3)NC(=O)NC1=O)C2` [Compound 986], for which the IC50 under setting [1] was determined as 87 nM.
As to `COc1ccc2c(c1)C(=O)N(C[C@]1(C#Cc3cnc(N)c(C(=O)O)c3)NC(=O)NC1=O)C2` [Compound 903], the IC50 (IC50 for TNF-α production) was determined as 1000 nM.
`COc1ccc2c(c1)C(=O)N(C[C@@]1(C#Cc3ccc(-c4cnccc4C)nc3)NC(=O)NC1=O)C2` [Compound 1100]: under setting [1], the IC50 came to 2390 nM.
Still for that read-out and setting: the value for `COc1ccc2c(c1)C(=O)N(C[C@@]1(C#Cc3ccc(C(=NO)C4CCN(C)CC4)cc3)NC(=O)NC1=O)C2` [Compound 2246] was 40 nM.
Consider `COc1ccc2c(c1)C(=O)N(C[C@@]1(C#Cc3ccc(C4=NCCN4)cc3)NC(=O)NC1=O)C2` [Compound 2222], for which, under setting [1], the IC50 worked out at 227 nM.
